Measured values as given in patent US20240058450A1, “BCL-XL Inhibitory Compounds Having Low Cell Permeability and Antibody Drug Conjugates Including the Same” (AbbVie Inc., priority 2014, published 2024).
Read-outs that look alike come from different tables or passages of the source.

What was measured:
Bcl-xL = Bcl-xL (Homo sapiens, UniProt Q07817); assay: Time Resolved-Fluorescence Resonance Energy Transfer (TR-FRET) binding assay, competition with probe F-Bak
In short: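 TR-FRET binding assay run at room temperature for 2 h after mixing compound with Bcl-xL protein, F-Bak probe and Tb-labelled antibody. Test compounds diluted from a 2× 50 μM stock. Ki values derived via Wang's equation from 520/495 nm emission under 340 nm excitation, in the absence of serum or with 1% HS.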

[1] = tested on: permeabilized Molt-4 cells; assay: JC-1 percent depolarization assay in digitonin permeabilized Molt-4 cells; format: cell-based; conditions: Homo sapiens
From the text: In addition to cytochrome c release, mitochondria undergoing apoptosis frequently lose their transmembrane mitochondrial membrane potential (Bouchier-Hayes et al., 2008, Methods 44(3): 222-228). JC-1 is a cationic carbocyanine dye that accumulates in mitochondria and fluoresces red when mitochondria are healthy and is lost when the mitochondrial membrane is compromised (percentage depolarization; Smiley et al., 1991, Proc. Natl. Acad. Sci. USA, 88: 3671-3675; Reers et al., 1991: Biochemistry, 30: 4480-4486). This loss in signal can be detected in permeabilized cells using a fluorimeter (excitation 545 nm and emission of 590 nm) and is therefore fully quantitative, enhancing both reproducibility and throughput. Specifically, digitonin permeabilized molt-4 cells (75,000/well) were treated with Bcl-xL inhibitors (1000 nM-0.00 nM) for up to 180 minutes at 32° C., with fluorescence determined every 10 minutes. At the maximal signal, the percentage depolarization can be determined for each time concentration of Bcl-xL inhibitors according to the formula:
% Depolarization=1−[(Sample−FCCP)/(DMSO−FCCP)]
DMSO and FCCP (10 μM) are used as negative and positive controls respectively (Ryan & Letai, 2013, Methods 61(2): 156-164). EC50 values were subsequently determined from the resulting concentration-response curves. Good alignment was observed when the ability of Bcl-xL inhibitors to induce cytochrome c release was compared to loss in JC-1 fluorescence in permeabilized Molt-4 cells.

[2] = tested on: Molt-4 human acute lymphoblastic leukemia cells; assay: Molt-4 cell viability assay (CellTiter-Glo, 48 hours, 10% HS); format: cell-based; conditions: Homo sapiens, MOLT-4, 48 h, non-permeabilized cells
In short: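 Cells were seeded at 12,500 per well in medium with 10% human serum and exposed to a 3-fold compound dilution series from 10 μM to 0.0005 μM. After 48 h, viable cells were quantified by CellTiter-Glo luminescence. Each concentration was run in duplicate on at least 3 occasions.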

[3] = tested on: permeabilized Bcl-xL dependent Molt-4 cells; assay: Cytochrome C release in selectively (digitonin) permeabilized Molt-4 cells; format: cell-based, human; conditions: Homo sapiens, MOLT-4, 4 h, 4 h treatment, read-out: Molt-4 Permeabilized Cyt C Release
In short: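 Bcl-xL-dependent Molt-4 cells (1×10^6) treated 4 h at 37° C, 5% CO2 with compound in half-log dilutions from 3.0 to 0.01 μM. Plasma membrane selectively permeabilized with digitonin to wash out cytosolic cytochrome C released from mitochondria; release measured as apoptosis proxy.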

[4] = in the presence of 1% HS, read-out: Bcl-xL Binding Ki (nM, 1% HS)
[5] = without HS, read-out: Bcl-xL Binding Ki

Sequence of Bcl-xL (Q07817 whole entry): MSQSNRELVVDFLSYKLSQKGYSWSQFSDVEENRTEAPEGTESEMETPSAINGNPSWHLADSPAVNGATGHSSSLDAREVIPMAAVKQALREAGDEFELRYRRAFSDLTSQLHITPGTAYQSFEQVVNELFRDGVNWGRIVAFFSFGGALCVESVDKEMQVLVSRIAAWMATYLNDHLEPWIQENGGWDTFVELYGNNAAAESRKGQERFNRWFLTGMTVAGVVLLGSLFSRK

Row | SMILES | Ki (Bcl-xL; [4]) | Ki (Bcl-xL; [5]) | EC50 [1] | EC50 [2] | EC50 [3]
1 | Cc1c(-c2ccc(-c3cnc4cccc(C(=O)Nc5nc6ccccc6s5)c4c3)nc2C(=O)O)cnn1CC12CC3(C)CC(C)(C1)CC(OCCNCCS(=O)(=O)O)(C3)C2 [Example 1.69, 6-[5-(1,3-benzothiazol-2-ylcarbamoyl)quinolin-3-yl]-3-{1-[(3,5-dimethyl-7-{2-[(2-sulfoethyl)amino]ethoxy}tricyclo[3.3.1.1^3,7]dec-1-yl)methyl]-5-methyl-1H-pyrazol-4-yl}pyridine-2-carboxylic acid] | 4.9 nM | < 0.01 nM | 0.14 nM |  | 
2 | Cc1c(-c2ccc(N3CCc4cccc(C(=O)Nc5nc6ccccc6s5)c4C3)nc2C(=O)O)cnn1CC12CC3(C)CC(C)(C1)CC(OCCNCC[C@H](O)CO)(C3)C2 [Example 1.85] | 0.4 nM | 0.016 nM | 0.07 nM | 78 nM | 
3 | Cc1c(-c2ccc(N3CCc4cccc(C(=O)Nc5nc6ccccc6s5)c4C3)nc2C(=O)O)cnn1CC12CC3(C)CC(C)(C1)CC(OCCNC(CO)CO)(C3)C2 [Example 1.45, 6-[8-(1,3-benzothiazol-2-ylcarbamoyl)-3,4-dihydroisoquinolin-2 (1H)-yl]-3-{1-[(3-{2-[(1,3-dihydroxypropan-2-yl)amino]ethoxy}-5,7-dimethyltricyclo[3.3.1.1^3,7]dec-1-yl)methyl]-5-methyl-1H-pyrazol-4-yl}pyridine-2-carboxylic acid] | 0.134 nM | < 0.001 nM | 0.13 nM | 19 nM | 
4 | Cc1c(-c2ccc(N3CCc4cccc(C(=O)Nc5nc6ncccc6s5)c4C3)nc2C(=O)O)cnn1CC12CC3(C)CC(C)(C1)CC(OCCNCCS(=O)(=O)O)(C3)C2 [Example 1.23, 3-{1-[(3,5-dimethyl-7-{2-[(2-sulfoethyl)amino]ethoxy}tricyclo[3.3.1.1^3,7]dec-1-yl)methyl]-5-methyl-1H-pyrazol-4-yl}-6-[8-([1,3]thiazolo[4,5-b]pyridin-2-ylcarbamoyl)-3,4-dihydroisoquinolin-2 (1H)-yl]pyridine-2-carboxylic acid] | 0.1 nM | 0.006 nM | 0.24 nM | 2720 nM | < 0.5 nM
5 | CNCCOC12CC3(C)CC(C)(CC(Cn4ncc(-c5ccc(-c6ccc7c[n+]([O-])cc(C(=O)Nc8nc9ccccc9s8)c7c6)nc5C(=O)O)c4C)(C3)C1)C2 [Example 1.88, 6-[4-(1,3-benzothiazol-2-ylcarbamoyl)-2-oxidoisoquinolin-6-yl]-3-[1-({3,5-dimethyl-7-[2-(methylamino)ethoxy]tricyclo[3.3.1.1^3,7]dec-1-yl}methyl)-5-methyl-1H-pyrazol-4-yl]pyridine-2-carboxylic acid] | 3 nM | 0.127 nM | 0.21 nM | 96 nM | 
6 | Cc1c(-c2ccc(N3CCc4cccc(C(=O)Nc5nc6ccccc6s5)c4C3)nc2C(=O)O)cnn1CC12CC3(C)CC(C)(C1)CC(OCCNCC(CO)CO)(C3)C2 [Example 1.79, 6-[8-(1,3-benzothiazol-2-ylcarbamoyl)-3,4-dihydroisoquinolin-2 (1H)-yl]-3-(1-{[3-(2-{[3-hydroxy-2-(hydroxymethyl)propyl]amino}ethoxy)-5,7-dimethyltricyclo[3.3.1.1^3,7]dec-1-yl]methyl}-5-methyl-1H-pyrazol-4-yl)pyridine-2-carboxylic acid] | 3.1 nM | < 0.01 nM | 0.14 nM | 104 nM | 
7 | Cc1c(-c2ccc(N3CCc4cccc(C(=O)Nc5nc6ccccc6s5)c4C3)nc2C(=O)O)cnn1CC12CC3(C)CC(C)(C1)CC(OCCNC[C@@H](O)[C@@H](O)[C@H](O)CO)(C3)C2 [Example 1.76, 5-{[2-([3-[(4-{6-[8-(1,3-benzothiazol-2-ylcarbamoyl)-3,4-dihydroisoquinolin-2 (1H)-yl]-2-carboxypyridin-3-yl}-5-methyl-1H-pyrazol-1-yl)methyl]-5,7-dimethyltricyclo[3.3.1.1^3,7]dec-1-yl}oxy)ethyl]amino}-5-deoxy-D-arabinitol] | 1.05 nM | < 0.01 nM | 0.26 nM | 495 nM | 
8 | Cc1c(-c2ccc(N3CCc4cccc(C(=O)Nc5nc6ccccc6s5)c4C3)nc2C(=O)O)cnn1CC12CC3(C)CC(C)(C1)CC(OCCNCC[C@@H](O)[C@H](O)[C@H](O)CO)(C3)C2 [Example 1.77, 1-{[2-({3-[(4-{6-[8-(1,3-benzothiazol-2-ylcarbamoyl)-3,4-dihydroisoquinolin-2 (1H)-yl]-2-carboxypyridin-3-yl}-5-methyl-1H-pyrazol-1-yl)methyl]-5,7-dimethyltricyclo[3.3.1.1^3,7]dec-1-yl}oxy)ethyl]amino}-1,2-dideoxy-D-arabino-hexitol] | 0.166 nM | < 0.01 nM | 0.099 nM | 837 nM | 
9 | Cc1c(-c2ccc(N3CCc4cccc(C(=O)Nc5nc6ccccc6s5)c4C3)nc2C(=O)O)cnn1CC12CC3(C)CC(C)(C1)CC(OCCNC(=O)[C@@H](N)CS(=O)(=O)O)(C3)C2 [Example 1.15, 6-[8-(1,3-benzothiazol-2-ylcarbamoyl)-3,4-dihydroisoquinolin-2 (1H)-yl]-3-{1-[(3,5-dimethyl-7-{2-[(3-sulfo-L-alanyl)amino]ethoxy}tricyclo[3.3.1.1^3,7]dec-1-yl)methyl]-5-methyl-1H-pyrazol-4-yl}pyridine-2-carboxylic acid] | 0.39 nM | 0.003 nM |  | 663 nM | 1 to 5 nM
10 | CNCCOC12CC3(C)CC(C)(CC(Cn4ncc(-c5ccc(N6CCc7c(OCC(=O)O)ccc(C(=O)Nc8nc9ccccc9s8)c7C6)nc5C(=O)O)c4C)(C3)C1)C2 [Example 1.41, 6-[8-(1,3-benzothiazol-2-ylcarbamoyl)-5-(carboxymethoxy)-3,4-dihydroisoquinolin-2 (1H)-yl]-3-[1-({3,5-dimethyl-7-[2-(methylamino)ethoxy]tricyclo[3.3.1.1^3,7]dec-1-yl}methyl)-5-methyl-1H-pyrazol-4-yl]pyridine-2-carboxylic acid] | 0.81 nM | 0.008 nM | 0.56 nM | 473 nM | < 0.5 nM
11 | Cc1c(-c2ccc(-c3ccc4cccc(C(=O)Nc5nc6ccccc6s5)c4c3)nc2C(=O)O)cnn1CC12CC3(C)CC(C)(C1)CC(OCCNCCCO[C@@H]1O[C@H](C(=O)O)[C@@H](O)[C@H](O)[C@H]1O)(C3)C2 [Example 1.87, 3-{[2-({3-[(4-{6-[8-(1,3-benzothiazol-2-ylcarbamoyl)naphthalen-2-yl]-2-carboxypyridin-3-yl)-5-methyl-1H-pyrazol-1-yl)methyl]-5,7-dimethyltricyclo[3.3.1.1^3,7]dec-1-yl}oxy)ethyl]amino}propyl beta-D-glucopyranosiduronic acid] | 0.55 nM | < 0.01 nM | 0.06 nM | 378 nM | 
